Assays:
Assay type in all cases: in vivo, Sprague-Dawley rats
[1] = test system: dry eye in the Alacrimal Rat Model; experiment: Alacrimal rat dry eye model: corneal fluorescein (FL) retention score; conditions: 100 μM topical 4 times a day
Experimental: (§1) Dry eye was induced in the left eye of Sprague-Dawley rats by removal of the extraorbital lacrimal gland. […] Topical administration of test compounds was initiated 2 weeks after surgery, given 4 times a day and continued for 24 days. Sham rats (n=6) were untreated. Alacrimal rats (n=6 each) were dosed bilaterally with 10 μL of phosphate buffered saline (PBS), or 100 μM of either of two MARCKS inhibitors: BIO-11006 [high molecular weight] or BIO-91201 [lower molecular weight]. The efficacy of these MARCKS inhibitor peptides was assessed via clinical examination using biomicroscopy and phenol red test (PRT) tear volume with the observers masked to the treatments. Examinations were at baseline, 2 weeks after surgery, and on days 1, 3, 7, 14, 21, and 24 after initiating dosing. Clinical scores for corneal opacity, vascularization, and corneal fluorescein (FL) retention were recorded at each examination.
PRT was higher in MARCKs inhibitor-dosed groups compared to PBS groups on days 14, 21, and 24 after surgery (p<0.02; t test). Fluorescein retention score was measured as shown in the table below, and the scores and statistical analyses are provided in FIG. 2.
Fluorescein retention scores.

[2] = test system: dry eye in the Alacrimal Rat Model; experiment: Alacrimal rat dry eye model: clinical examination by biomicroscopy, corneal opacity score; conditions: for Corneal scores compared to sham: 100 μM topical 4 times a day, days 3 and 7
Experimental: as §1
Corneal scores were assessed as in the table below.

[3] = test system: dry eye in the Alacrimal Rat Model; experiment: Alacrimal rat dry eye model: phenol red test (PRT) tear volume; conditions: overall conclusion of the study; 100 μM topical
Experimental: as §1
FIG. 3 provides the results of the phenol red test (PRT), showing tear measurement in mm/20 s averaged for each group.

Ac-AKGE-OH [BIO-91201]
FL retention scores versus sham eyes ([1]; through day 14): not significantly different than sham eyes | corneal fluorescein (FL) retention ([1]; versus PBS or BIO-11006 dosed eyes, p<0.02): significantly lower FL retention than PBS or BIO-11006 dosed eyes | Corneal scores compared to sham [2]: no difference between sham and BIO-91201 | corneal opacity scores ([2]; 100 μM, 10 μL topical 4 times a day for 24 days, relative to PBS and BIO-11006 dosed groups): reduced corneal opacity scores relative to the PBS and BIO-11006 dosed groups | effect on indicators of dry eye disease including corneal scores and corneal fluorescein retention ([2]; overall conclusion of the study, 100 μM topical): significant positive effect | tear production [3]: improvement in tear production

BIO-11006: N-terminal acetylated peptide of SEQ ID NO 106 (GAQFSKTAAK), free C-terminus; MARCKS inhibitor, high molecular weight (Ac-GAQFSKTAAK-OH)
Corneal scores compared to sham [2]: significantly elevated

— patent US20250161403A1, “PEPTIDES AND METHODS OF USE THEREOF IN TREATING OCULAR DISORDERS” (Biomarck Pharmaceuticals, Ltd., priority 2022, published 2025)
